# Measured values from patent publication US20050261331A1, “Substituted pyrrolopyridines” (priority 2002, published 2005).
# Where a name gives a salt, the structure may show the parent alone.
# Biological target: T1, recombinant human Itk kinase domain fused with GST (Homo sapiens, UniProt Q08881)
# T1 construct: recombinant human Itk kinase domain fused with GST; made in house; host or cells: High Five insect cells
# T1 sequence (Q08881 363-615 limits assumed): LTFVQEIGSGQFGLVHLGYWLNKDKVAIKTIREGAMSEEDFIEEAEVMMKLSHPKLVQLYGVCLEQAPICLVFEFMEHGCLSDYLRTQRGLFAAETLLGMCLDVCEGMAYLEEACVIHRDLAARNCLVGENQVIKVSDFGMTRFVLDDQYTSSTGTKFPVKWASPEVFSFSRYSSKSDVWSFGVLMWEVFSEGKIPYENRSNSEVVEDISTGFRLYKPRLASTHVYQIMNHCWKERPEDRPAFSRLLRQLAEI
# Assay: Itk LANCE TRF Assay
# Type: biochemical
# Conditions: 160 ng/well Itk, 2 μM peptide substrate, 50 μM ATP, 50 minutes RT; read-out: Inhibition of Kinase Itk (IC50 μM)
# Experimental: The Itk kinase assay utilized recombinant human Itk kinase domain fused with GST (Glutathione S-Transferase). The protein was expressed in High five insect cells, purified in one step on an affinity chromatography glutathione column and stored in 50 mM Tris/HCl (pH 7.6), 150 mM NaCl, 5% (w/v) mannitol, 1 mM DTT, 30% glycerol at −70° C. The kinase substrate used in the assay was a biotinylated peptide derived from the Src-optimal substrate (Nair et al, J. Med. Chem., 38: 4276, 1995; biotin-AEEEIYGEFEAKKKK).
# The assay additions were as follows: Test compounds (or controls; 1 μL in 100% DMSO) were added to black 96-well flat-bottomed plates (Greiner 655076) followed by 20 μL Itk in assay buffer and the reaction was started by adding 20 μL ATP and peptide substrate in assay buffer. The assay buffer constitution during phosphorylation was: 50 mM HEPES (pH 6.8), 10 mM MgCl2, 0.015% Brij 35, 1 mM DTT, 10% glycerol, 160 ng/well Itk, 2 μM peptide substrate and 50 μM ATP. The assay was stopped after 50 minutes (RT) by adding 150 μL ice-cold Stop solution (50 mM Tris/HCl, pH 7.5, 10 mM EDTA, 0.9% NaCl and 0.1% BSA) together with LANCE reagents (2 nM PT66-Eu^3+, Wallac AD0069 and 5 μg/ml Streptavidin-APC, Wallac AD0059. Both concentrations were final in stopped assay solution). The plates were measured on a Wallac 1420 Victor 2 instrument with TRF settings after 1 h incubation, and the ratio (665 signal/615 signal)*10000 was used to calculate the inhibition values. IC50 values were determined using XLfit.
row,Compound,IC50
1,"CC(=O)NCc1ccc(-c2c(-c3ccccc3)[nH]c3ncc(Br)cc23)o1 [Example 13, N-[5-(5-Bromo-2-phenyl-1-H-pyrrolo[2,3-b]pyridin-3-yl)-furan-2-ylmethyl]-acetamide]",0.03 µM
2,"Cc1c(Br)cnc2[nH]c(-c3ccc(OCCCN(C)C)cc3)c(-c3cccnc3)c12 [Example 55, {3-[4-(5-Bromo-4-methyl-3-pyridin-3-yl-1H-pyrrolo[2,3-b]pyridin-2-yl)phenoxy]propyl}dimethylamine]",0.01 µM
3,"CN(C)CCCN(C)c1ccc(-c2[nH]c3ncc(Cl)cc3c2-c2cncnc2)cn1 [Example 61, N-[5-(5-Chloro-3-pyrimidin-5-yl-1H-pyrrolo[2,3-b]pyridin-2-yl]-N,N′,N′-trimethylpropane-1,3-diaminetrihydrochloride]",0.04 µM
4,"CN(C)CCCOc1ccc(-c2c(-c3ccco3)[nH]c3ncc(Br)cc23)cc1 [Example 5, 3-{4-[S-Bromo-2-(2-furyl)-1H-pyrrolo[2,3-b]pyridin-3-yl]phenoxy}-N,N-dimethylpropan-1-amine trifluoroacetate]",0.01 µM
5,"N#Cc1cnc2[nH]c(-c3ccccc3)c(-c3ccc(N4CCOCC4)cc3)c2c1 [Example 44, 3-(4-Morpholin-4-ylphenyl)-2-phenyl-1H-pyrrolo[2,3-b]pyridine-5-carbonitrile]",0.44 µM

# Tested on: not given
# Assay: not given
# Conditions: not given
row,Compound,melting point
1,"CC(=O)NCc1ccc(-c2c(-c3ccccc3)[nH]c3ncc(Br)cc23)o1 [Example 13, N-[5-(5-Bromo-2-phenyl-1-H-pyrrolo[2,3-b]pyridin-3-yl)-furan-2-ylmethyl]-acetamide]",176 to 176.5 °C
2,"Brc1cnc2[nH]c(-c3ccccc3)c(-c3ccco3)c2c1 [Example 12, 5-Bromo-3-furan-2-yl-2-phenyl-1-H-pyrrolo[2,3-b]pyridine]",105 to 107 °C
